From patent US20220031690A1, “ANTI-NEURODEGENERATIVE DISEASE AGENT” (Hayashibara Co., Ltd., priority 2018, published 2022)

Key:
[1] = tested on: PC12-HS cells; experiment: Evaluation method B: neurite-outgrowth promoting activity in the presence of NGF; assay type: cell-based, rat; conditions: for Neurite-outgrowth rate (%) / Action on PC12-HS neurite-outgrowth promotion (500 ng/ml): NGF 10 ng/ml; for Action on PC12-HS neurite-outgrowth promotion (500 ng/ml): 3 days, class of neurite-outgrowth rate
Text: (§1) As a model of the nerve cell, the NGF (nerve growth factor) highly sensitive strain of PC12 cell derived from the rat adrenal pheochromocytoma (hereinafter referred to as “PC12-HS cell”; JCRB cell bank, National Research and Development Institute of Health and Nutrition), which has been widely used as a suitable model for research on human neurodegenerative disease, was used. As the test compound, […] of trimethine cyanine dye compounds; NK-5 (Chemical formula 2), NK-36 (Chemical formula 3), NK-44 (Chemical formula 5) and dye compounds represented by Chemical formulae 12 to 18, and NK-6 (Chemical formula 7), which is a monomethine cyanine dye, were selected. In addition, two kinds of ethylene cross-linked dyes (Chemical formulae 19 and 20), 15 kinds of monomethine cyanine dyes (Chemical formulae 21 to 35), and seven kinds of trimethine cyanine dyes (Chemical formulae 36 to 42), which were expected to have a good neurocyte growth acceleration activity and/or neurite-outgrowth promoting activity in the screening disclosed in Patent literature 6, were also re-evaluated for comparison. The Chemical formulae 12 to 42 are shown below.
(§2) The cyanine dye compounds subjected to the test (purity 97% by mass or more, synthesized by Hayashibara Co., Ltd., Okayama, Japan) were individually dissolved in DMSO (product number “D8418”, commercialized by SIGMA Corporation) at a concentration of 5 mg/ml, and the solutions were then filtered through DMSO-resistant membrane (“Millex-LGS LLG025SS”, commercialized by Millipore Corporation) and stored at 25° C. in a dark condition. At the time of use, they were further diluted with Dulbecco's Medium (hereinafter, abbreviated as “D-MEM medium”, commercialized by Nissui Pharmaceutical Co., Ltd.) supplemented by 10% by volume of fetal bovine serum (FBS), and subjected to the test.
As in the case of evaluation of neurocyte growth accelerating activity (Evaluation method A), 50 μl/well of each test compound solution, prepared by diluting with the culture medium to give a final concentration of 500 ng/ml, and the culture medium containing 20 ng/ml of mouse NGF (mouse derived, final concentration 10 ng/ml, commercialized by Chemicon International, Inc., CA, USA) (50 μl/well) were added to the precultured PC12-HS cells in each well, and then cultured for three days. Culture medium was removed on day 3 of culture, and cells were fixed by adding 100 μl/well of 10% by volume of glutaraldehyde and standing for 20 minutes at room temperature. As a negative control, PC12-HS cells, cultured for three days with culture medium, were fixed with glutaraldehyde similarly as above. Fixed cells were observed under a microscope to assess the neurite-outgrowth. The neurite-outgrowth rate (%) was determined by observing the cells using a microscope by adjusting the magnitude to give about 100 cells in one visual field, counting the number of cells having neurites twice or more in length of the cell body (major axis), dividing by the total number of cells in the same visual field, and multiplying by 100. Measurements were carried out at three points for each test compound. […] In this experiment, the neurite-outgrowth rate was 5% or less when NGF was added (final concentration 10 ng/ml) without the addition of the test compound.
The method was based on Experiment 1-1, except the concentrations of the test compounds were set to three doses of 40 nM, 200 nM and 1,000 nM for evaluation method A (neurocyte growth accelerating effect), and two doses of 200 nM and 1,000 nM for evaluation method B (neurite outgrowth promoting effect). Measurements were performed in triplicate for each concentration of each test compound in both evaluation methods A and B. The result of the evaluation method A was expressed as a cell proliferation rate (%) by determined a relative percentage (%) when the value of the negative control to which the test compound was not added, was regarded as 100%. […]

[2] = tested on: PC12-HS cells; experiment: Evaluation method A: neurocyte growth acceleration activity (Alamar blue); assay type: cell-based, rat; conditions: for Cell proliferation rate (%): negative control = 100%; for Action on PC12-HS growth acceleration (50 ng/ml): 3 days culture, class of cell proliferation rate vs negative control = 100%; for neurocyte growth acceleration activity (in words): 40, 200 and 1,000 nM, comment on Table 2
Text: as §1, §2
PC12-HS cells were subjected to tests after frozen stock cultured cells were thawed and cultured with a D-MEM medium supplemented with 10% by volume of FBS (Hereinafter, when the term “culture” is simply used, it means that the cells are statically cultured in an incubator controlled at 37° C. under 5% by volume of CO2 conditions). Cells used in the test were collected using 0.25% by weight of trypsin solution, then diluted with a D-MEM medium supplemented with 10% by volume of FBS (hereinafter referred to as “culture medium”), seeded into collagen-coated 96-well plates (commercialized by Falcon, Tokyo, Japan, “Microtest Plate, Cell Culture, Flat Bottom”) to obtain 5×10^3 cells/100 μl/well, and cultured for 24 hours (hereinafter referred to as “pre-culture”). Then, the above test samples were diluted with a culture medium, and 100 μl of diluted solution of the test compounds were added to each well so that the final concentration of the test compounds in the wells became 50 ng/ml, and the cells were cultured for another three days. On day 3, the cultures supernatant was removed from each well, 200 μl of culture medium containing 10% by volume of Alamar blue reagents (commercialized by Trek Diagnostic Systems Inc., Ohio, USA) were added to each well, and the cells were cultured for 6 hours. After culturing for 6 hours, the cells were measured for fluorescent intensity at a wavelength of 544-590 nm by “FlexStation 3”, a product name of a fluorescent plate reader (commercialized by Japan Molecular Devices Corporation, Tokyo, Japan). […] Measurements were performed for each test compound in triplicate, and the mean values were shown.
The method was based on Experiment 1-1, except the concentrations of the test compounds were set to three doses of 40 nM, 200 nM and 1,000 nM for evaluation method A (neurocyte growth accelerating effect), and two doses of 200 nM and 1,000 nM for evaluation method B (neurite outgrowth promoting effect). […]

[3] = DPPH radical scavenging ability (absorbance method); assay type: biochemical; conditions: ethanol, room temperature, 2 hours, absorbance at 490 nm
Text: 2,2-Diphenyl-1-picrylhydrazyl (hereinafter referred to as “DPPH”) is a radical with an unpaired electron and has the oxidizing ability of other substances. In addition, because it is stable and easy to handle, it is widely used as an artificial radical-like substance for measuring the antioxidant ability of antioxidants. When DPPH reacts with a substance having antioxidant ability, it loses its own oxidizing ability and its color changes from deep purple to […].
DPPH (commercialized by Tokyo Kasei Kogyo Co., Ltd., Tokyo, Japan) was dissolved in ethanol to prepare a 167 μM DPPH ethanol solution, and 90 μl of the solution was added to each well of the 96-well microplate. A 60 μl each of the test compound serially diluted with ethanol was added to the DPPH ethanol solution, and the mixture was reacted at room temperature for 2 hours, and then the absorbance at 490 nm was measured. […] From those value, the 50% inhibitory concentration of the DPPH radical (Hereinafter, it is referred to as “IC50”) was calculated.

IC50 [3] | SMILES | Neurite-outgrowth rate (%) ([1]; 1.000 nM) | Neurite-outgrowth rate (%) ([1]; 200 nM) | Cell proliferation rate (%) ([2]; 1.000 nM) | Cell proliferation rate (%) ([2]; 40 nM) | Action on PC12-HS growth acceleration (50 ng/ml) [2] | Cell proliferation rate (%) ([2]; 200 nM) | neurocyte growth acceleration activity (in words) [2] | Action on PC12-HS neurite-outgrowth promotion (500 ng/ml) [1] | neurite-outgrowth promoting activity (in words) ([1]; 200 and 1,000 nM, comment on Table 2)
– | CC1=CO/C(=C\C=C\c2occ(C)[n+]2C)N1C.F[P-](F)(F)(F)(F)F [NK-10089] | 29.3% | 0.0% | 91.6% | 110.6% | ◯ (the relative value of 130% to 169% was judged to be equivalent to NK-4 (“circle”)) | 123.4% | slightly weaker activity than NK-6 and NK-36 | – | –
≥ 10 mM | CCn1ccc(=O)c2ccccc21 [NKX-4076] | – | – | – | – | – | – | – | – | –
– | CN(C)c1ccc(C=Cc2oc3ccccc3[n+]2C)cc1.[I-] [NK-528] | – | – | – | – | ◯ (the relative value of 130% to 169% was judged to be equivalent to NK-4 (“circle”)) | – | – | ◯ (When the mean neurite-outgrowth rate was 25 to 44%, it was judged to be equivalent to the positive control NK-4 (“circle”)) | –
– | CCN1C(=CC(C)=Cc2sc3ccccc3[n+]2CCCS(=O)(=O)[O-])Sc2ccccc21 [NK-4781] | 88.3% | 31.2% | 89.1% | 110.0% | – | 106.6% | almost no growth acceleration activity | ⊚ (45% or more was judged to be more potent than NK-4 (“double circle”)) | stronger neurite-outgrowth promoting activity than NK-4
